Reference: US4177277A, “Method for alleviating hypertension” (E. R. Squibb & Sons, Inc., priority 1978, dated 1979)
Values after ≈ are worked out from the molar mass of the structure shown. Non-standard residues stand in square brackets, D forms with d. Residues, ends and D or L forms follow the SMILES beside them.

Assays:
[1] = target: T1, angiotensin-converting enzyme of rabbit lung (Oryctolagus cuniculus, UniProt P12822); assay: Inhibition of isolated angiotensin-converting enzyme of rabbit lung (cleavage of hippuryl-L-histidyl-L-leucine); type: biochemical; details: 5 mM hippuryl-L-histidyl-L-leucine, pH 8.3, 30 minutes at 37° C., read-out: I50 (concentration producing a 50% inhibition of angiotensin-converting enzyme) (converted)
T1 construct: isolated angiotensin converting enzyme from rabbit lungs; from tissue; host or cells: rabbit lung
T1 sequence (P12822 34-1310): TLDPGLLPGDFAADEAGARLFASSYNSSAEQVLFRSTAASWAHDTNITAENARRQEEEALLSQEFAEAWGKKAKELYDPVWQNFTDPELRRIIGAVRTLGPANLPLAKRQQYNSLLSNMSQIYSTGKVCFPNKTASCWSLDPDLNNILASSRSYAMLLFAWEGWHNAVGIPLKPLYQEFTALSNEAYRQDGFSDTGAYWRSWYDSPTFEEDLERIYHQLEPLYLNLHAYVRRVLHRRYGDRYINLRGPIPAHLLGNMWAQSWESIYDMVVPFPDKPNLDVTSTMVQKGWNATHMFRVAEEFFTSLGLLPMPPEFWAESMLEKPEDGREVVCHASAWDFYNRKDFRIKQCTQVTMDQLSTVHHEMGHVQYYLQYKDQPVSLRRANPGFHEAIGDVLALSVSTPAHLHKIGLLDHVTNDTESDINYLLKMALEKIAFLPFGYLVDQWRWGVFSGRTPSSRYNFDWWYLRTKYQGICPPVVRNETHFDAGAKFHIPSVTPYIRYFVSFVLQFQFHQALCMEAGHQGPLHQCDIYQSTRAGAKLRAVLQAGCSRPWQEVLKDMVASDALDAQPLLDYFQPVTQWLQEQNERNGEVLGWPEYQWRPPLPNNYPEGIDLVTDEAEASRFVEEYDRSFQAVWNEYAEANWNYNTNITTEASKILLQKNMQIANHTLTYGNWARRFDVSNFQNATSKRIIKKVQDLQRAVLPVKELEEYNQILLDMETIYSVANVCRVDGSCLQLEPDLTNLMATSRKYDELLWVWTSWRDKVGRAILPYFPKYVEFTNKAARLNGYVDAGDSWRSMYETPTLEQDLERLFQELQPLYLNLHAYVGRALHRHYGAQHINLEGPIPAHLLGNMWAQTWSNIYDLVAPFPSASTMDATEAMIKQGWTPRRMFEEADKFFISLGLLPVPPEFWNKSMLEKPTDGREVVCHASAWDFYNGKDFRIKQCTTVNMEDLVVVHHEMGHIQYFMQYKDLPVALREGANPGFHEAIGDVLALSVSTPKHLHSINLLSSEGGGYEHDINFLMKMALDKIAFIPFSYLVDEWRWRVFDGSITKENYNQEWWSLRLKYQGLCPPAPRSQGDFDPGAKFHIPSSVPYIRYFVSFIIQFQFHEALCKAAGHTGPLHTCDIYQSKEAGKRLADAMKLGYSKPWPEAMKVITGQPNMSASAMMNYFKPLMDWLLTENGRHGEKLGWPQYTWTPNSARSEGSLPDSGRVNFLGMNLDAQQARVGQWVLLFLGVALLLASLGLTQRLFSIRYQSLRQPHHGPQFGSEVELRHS
Source text: Although conversion of angiotensin I to angiotensin II by angiotensin-converting enzyme is probably the reaction of most importance in the pathology of hypertension, the activity of the isolated enzyme is more conveniently and accurately assayed by measuring its rate of cleavage of a simpler peptide substrate, hippuryl-L-histidyl-L-leucine. […] Controls containing no inhibitor (100% activity), and those acidified before addition of the enzyme (0% activity) are similarly prepared. All of the enzymatic reations are initiated by addition of the enzyme component; tubes are incubated for 30 minutes at 37° C.; and reactions are terminated by addition of 0.25 ml. of 1 N HCl. The hippuric acid formed by action of angiotensin-converting enzyme on hippuryl-L-histidyl-L-leucine is extracted into ethyl acetate, evaporated to dryness, redissolved in water and quantitated from its absorbance at 228 nm. The percent inhibition by each concentration of compound is calculated by comparison with the 0% and 100% activity controls.

[2] = system: angiotensin I converting enzyme in excised guinea pig ileum; assay: Inhibition of angiotensin I converting enzyme in excised guinea pig ileum (contractile activity of angiotensin I); type: cell-based; details: Cavia porcellus, Krebs solution at 37°, angiotensin I added after two minutes, read-out: IC50 (inhibition of the contractile activity of angiotensin I by 50%)
Procedure: After two minutes, angiotensin I ([…]) is added and the isotonic contractions are measured.

[3] = system: normotensive rats; details: Ripa 1970; cited from earlier work
[4] = system: anesthetized normotensive rats; details: intravenous injection, Schulze 1972; cited from earlier work
[5] = Fujimura et al. 1964; cited from earlier work
[6] = system: angiotensin I pressor response; assay: Inhibition of angiotensin I pressor response in unanesthetized rats after oral administration; type: in vivo, rats of the Sprague-Dawley strain; details: unanesthetized male Sprague-Dawley rats, 0.31 μg/kg angiotensin I, 2 animals
Procedure: A representative compound of the present invention administered orally at doses of 10 and 100 mg/kg to unanesthetized male rats of the Sprague-Dawley strain weighing about 200 g., followed by an injection of 0.31 μg/kg of angiotensin I, indicates the following degree of inhibition obtained.

| SMILES | IC50 [1] [nM] | IC50 [2] [µg/mL] | further results |
| --- | --- | --- | --- |
| CC(=O)NC(CSC(C)=O)C(=O)N1CCC[C@H]1C(=O)O (mixture of isomers) [N,S-Diacetyl-DL-cysteinyl-L-proline] | 72800 | 23 |  |
| CC(=O)NC(CS)C(=O)N1CCC[C@H]1C(=O)O (mixture of isomers) [N-Acetyl-DL-cysteinyl-L-proline] | 1150 | 0.6 |  |
| CC(S)C(=O)NCC(=O)O (stereo not shown) [2-mercaptopropionyl-glycine] |  |  | angiotensinogen [3]: increases angiotensinogen; renin blood levels [3]: lowers renin blood levels; lowering of the blood pressure [4]: produced lowering of the blood pressure; effects on blood pressure [5]: no noticeable effects on blood pressure |
| N[C@H](CS)C(=O)N1CCC[C@H]1C(=O)O [D-Cysteinyl-L-proline] (H-[dC]-Pro-OH) | 596 | 0.05 (≈ 0.229 µM) | % maximum inhibition of angiotensin I pressor response ([6]; 10 mg/kg orally): 62%; % maximum inhibition of angiotensin I pressor response ([6]; 100 mg/kg orally): 95% |

More lines, main results first:

| IC50 [1] [nM] | IC50 [2] [µg/mL] | SMILES | further results |
| --- | --- | --- | --- |
| 69.1 | 0.47 (≈ 1.81 µM) | NCCCC(CS)C(=O)N1CCC[C@H]1C(=O)O (mixture of isomers) [1-(5-Amino-2-mercaptomethylpentanoyl)-L-proline] |  |
| 36700 | 23 (≈ 105 µM) | N[C@@H](CS)C(=O)N1CCC[C@H]1C(=O)O [L-Cysteinyl-L-proline] (H-Cys-Pro-OH) |  |
